In the kinase profiling compilation of Christmann-Franck et al. (2016):

Tests used:
Assay in all cases: KINOMEscan competition binding
Settings in all cases: compound 10.0 µM
[1] = target: ACVR1 (human) (UniProt Q04771)
[2] = target: ADCK3 (human) (UniProt Q8NI60)
[3] = target: AXL (human) (UniProt P30530)
[4] = target: CLK3 (human) (UniProt P49761)
[5] = target: DYRK1A (human) (UniProt Q13627)
[6] = target: EPHA3 (human) (UniProt P29320)
[7] = target: FES (human) (UniProt P07332)
[8] = target: GRK1 (human) (UniProt Q15835)
[9] = target: GSK3B (human) (UniProt P49841)
[10] = target: ICK (human) (UniProt Q9UPZ9)
[11] = target: INSR (human) (UniProt P06213)
[12] = target: JAK2 JH1 catalytic (human) (UniProt O60674)
[13] = target: LIMK1 (human) (UniProt P53667)
[14] = target: MAK (human) (UniProt P20794)
[15] = target: MAP4K3 (human) (UniProt Q8IVH8)
[16] = target: MAPK4 (human) (UniProt P31152)
[17] = target: MAPK6 (human) (UniProt Q16659)
[18] = target: MAPK7 (human) (UniProt Q13164)
[19] = target: MELK (human) (UniProt Q14680)
[20] = target: MST1R (human) (UniProt Q04912)
[21] = target: MST4 (human) (UniProt Q9P289)
[22] = target: MYLK4 (human) (UniProt Q86YV6)
[23] = target: NEK1 (human) (UniProt Q96PY6)
[24] = target: PAK7 (human) (UniProt Q9P286)
[25] = target: PI4KB (human) (UniProt Q9UBF8)
[26] = target: PIK3CA (human) (UniProt P42336)
[27] = target: PIM1 (human) (UniProt P11309)
PIM1 (human), sequence (P11309 whole entry, looked up): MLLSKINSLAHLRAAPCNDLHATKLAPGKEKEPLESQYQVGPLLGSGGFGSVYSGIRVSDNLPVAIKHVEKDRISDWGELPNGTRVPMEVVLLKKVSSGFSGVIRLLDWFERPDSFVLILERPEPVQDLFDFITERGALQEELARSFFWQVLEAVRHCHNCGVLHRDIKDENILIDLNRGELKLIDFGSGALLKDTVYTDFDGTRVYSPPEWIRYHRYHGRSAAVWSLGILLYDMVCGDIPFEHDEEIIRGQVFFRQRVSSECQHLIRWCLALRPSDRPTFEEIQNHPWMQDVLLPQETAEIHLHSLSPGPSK

[28] = target: PTK6 (human) (UniProt Q13882)
[29] = target: ROCK1 (human) (UniProt Q13464)
[30] = target: ROS1 (human) (UniProt P08922)
ROS1 (human), sequence (P08922 whole entry, looked up): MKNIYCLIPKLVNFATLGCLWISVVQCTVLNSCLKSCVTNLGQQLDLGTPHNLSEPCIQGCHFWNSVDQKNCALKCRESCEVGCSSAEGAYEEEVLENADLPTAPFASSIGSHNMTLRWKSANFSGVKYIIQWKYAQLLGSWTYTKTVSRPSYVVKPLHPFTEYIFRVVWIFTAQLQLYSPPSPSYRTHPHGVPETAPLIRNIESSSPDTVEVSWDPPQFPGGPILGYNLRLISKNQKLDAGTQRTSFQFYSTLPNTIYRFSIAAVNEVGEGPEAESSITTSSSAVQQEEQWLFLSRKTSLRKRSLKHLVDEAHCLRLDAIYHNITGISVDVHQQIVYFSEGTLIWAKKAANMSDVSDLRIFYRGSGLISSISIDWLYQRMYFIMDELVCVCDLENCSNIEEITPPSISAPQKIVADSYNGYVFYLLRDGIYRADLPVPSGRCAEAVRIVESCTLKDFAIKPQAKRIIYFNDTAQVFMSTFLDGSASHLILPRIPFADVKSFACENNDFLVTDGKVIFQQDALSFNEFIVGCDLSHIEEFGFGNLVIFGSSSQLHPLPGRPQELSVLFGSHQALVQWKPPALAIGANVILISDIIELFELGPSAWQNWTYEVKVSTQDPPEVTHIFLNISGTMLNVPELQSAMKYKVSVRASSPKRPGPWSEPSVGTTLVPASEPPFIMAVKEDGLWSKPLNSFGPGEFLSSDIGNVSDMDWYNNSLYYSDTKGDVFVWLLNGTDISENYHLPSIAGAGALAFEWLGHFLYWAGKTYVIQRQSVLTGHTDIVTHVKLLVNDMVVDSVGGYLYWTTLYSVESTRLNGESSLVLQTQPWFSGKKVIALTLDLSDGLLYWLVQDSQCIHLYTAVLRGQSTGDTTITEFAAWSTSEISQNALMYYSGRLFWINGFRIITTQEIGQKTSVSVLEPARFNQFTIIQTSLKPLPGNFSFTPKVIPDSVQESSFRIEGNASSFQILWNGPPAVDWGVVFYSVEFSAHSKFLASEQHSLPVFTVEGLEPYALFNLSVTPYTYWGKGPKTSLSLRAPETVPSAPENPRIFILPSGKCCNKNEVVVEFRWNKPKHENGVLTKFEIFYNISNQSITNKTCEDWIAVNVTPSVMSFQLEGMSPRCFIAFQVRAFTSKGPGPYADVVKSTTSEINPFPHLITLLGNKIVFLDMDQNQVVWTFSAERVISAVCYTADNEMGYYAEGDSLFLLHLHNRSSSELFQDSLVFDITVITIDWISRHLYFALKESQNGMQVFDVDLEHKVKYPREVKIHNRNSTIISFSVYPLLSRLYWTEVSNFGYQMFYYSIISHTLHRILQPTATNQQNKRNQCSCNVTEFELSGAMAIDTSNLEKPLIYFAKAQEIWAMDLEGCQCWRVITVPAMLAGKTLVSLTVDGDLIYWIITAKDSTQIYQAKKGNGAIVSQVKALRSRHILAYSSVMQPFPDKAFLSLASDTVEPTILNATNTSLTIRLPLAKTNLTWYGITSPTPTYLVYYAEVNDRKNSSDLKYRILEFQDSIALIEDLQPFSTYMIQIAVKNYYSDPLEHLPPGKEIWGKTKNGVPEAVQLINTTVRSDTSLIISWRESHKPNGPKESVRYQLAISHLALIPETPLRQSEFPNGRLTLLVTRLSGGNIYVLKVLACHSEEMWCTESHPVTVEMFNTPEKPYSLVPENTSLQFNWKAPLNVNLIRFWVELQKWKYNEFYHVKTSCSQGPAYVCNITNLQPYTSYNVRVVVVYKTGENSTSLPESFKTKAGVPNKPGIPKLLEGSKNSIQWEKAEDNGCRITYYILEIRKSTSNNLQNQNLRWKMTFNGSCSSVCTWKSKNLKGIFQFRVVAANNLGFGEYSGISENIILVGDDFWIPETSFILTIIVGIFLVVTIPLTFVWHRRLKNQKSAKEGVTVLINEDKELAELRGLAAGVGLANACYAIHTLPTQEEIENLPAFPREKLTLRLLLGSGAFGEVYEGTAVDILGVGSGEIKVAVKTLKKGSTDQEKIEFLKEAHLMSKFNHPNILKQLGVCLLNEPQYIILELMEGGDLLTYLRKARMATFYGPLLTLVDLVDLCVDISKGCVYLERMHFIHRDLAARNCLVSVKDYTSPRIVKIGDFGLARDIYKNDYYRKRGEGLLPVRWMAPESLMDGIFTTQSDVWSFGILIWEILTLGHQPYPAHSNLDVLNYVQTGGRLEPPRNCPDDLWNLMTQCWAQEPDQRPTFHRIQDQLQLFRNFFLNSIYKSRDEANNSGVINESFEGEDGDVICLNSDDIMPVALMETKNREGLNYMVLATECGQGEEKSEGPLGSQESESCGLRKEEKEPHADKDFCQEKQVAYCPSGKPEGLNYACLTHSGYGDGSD

[31] = target: SGK110 (human) (UniProt P0C264)
SGK110 (human), sequence (P0C264 whole entry, looked up): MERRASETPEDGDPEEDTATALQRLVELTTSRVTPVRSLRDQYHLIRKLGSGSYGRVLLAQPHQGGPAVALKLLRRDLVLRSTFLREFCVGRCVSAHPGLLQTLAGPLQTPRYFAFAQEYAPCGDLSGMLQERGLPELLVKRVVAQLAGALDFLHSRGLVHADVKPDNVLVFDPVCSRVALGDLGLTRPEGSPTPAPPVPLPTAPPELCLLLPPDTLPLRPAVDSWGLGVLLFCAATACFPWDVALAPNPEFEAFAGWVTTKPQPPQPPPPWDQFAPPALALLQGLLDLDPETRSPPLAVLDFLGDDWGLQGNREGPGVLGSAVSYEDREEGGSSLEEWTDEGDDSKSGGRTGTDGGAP

[32] = target: STK17A (human) (UniProt Q9UEE5)
STK17A (human), sequence (Q9UEE5 whole entry, looked up): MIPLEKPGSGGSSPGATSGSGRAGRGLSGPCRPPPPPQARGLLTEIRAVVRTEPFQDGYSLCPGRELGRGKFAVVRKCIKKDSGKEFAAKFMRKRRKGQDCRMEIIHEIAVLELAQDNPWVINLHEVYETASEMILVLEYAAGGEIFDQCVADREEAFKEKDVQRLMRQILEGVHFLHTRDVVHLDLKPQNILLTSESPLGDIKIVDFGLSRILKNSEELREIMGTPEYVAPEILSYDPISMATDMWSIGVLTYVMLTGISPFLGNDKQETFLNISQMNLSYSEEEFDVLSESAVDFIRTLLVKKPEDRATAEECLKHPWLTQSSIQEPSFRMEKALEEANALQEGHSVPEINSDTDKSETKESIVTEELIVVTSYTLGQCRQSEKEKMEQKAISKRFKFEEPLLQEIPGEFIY

[33] = target: STK3 (human) (UniProt Q13188)
[34] = target: STK38 (human) (UniProt Q15208)
[35] = target: TAOK1 (human) (UniProt Q7L7X3)
[36] = target: TNK2 (human) (UniProt Q07912)
[37] = target: TTK (human) (UniProt P33981)
[38] = target: WEE2 (human) (UniProt P0C1S8)
[39] = target: YES1 (human) (UniProt P07947)
[40] = target: DSTYK (human) (UniProt Q6XUX3)
[41] = target: TRPM6 (human) (UniProt Q9BX84)

ADCK3 (human), sequence (Q8NI60 whole entry, looked up): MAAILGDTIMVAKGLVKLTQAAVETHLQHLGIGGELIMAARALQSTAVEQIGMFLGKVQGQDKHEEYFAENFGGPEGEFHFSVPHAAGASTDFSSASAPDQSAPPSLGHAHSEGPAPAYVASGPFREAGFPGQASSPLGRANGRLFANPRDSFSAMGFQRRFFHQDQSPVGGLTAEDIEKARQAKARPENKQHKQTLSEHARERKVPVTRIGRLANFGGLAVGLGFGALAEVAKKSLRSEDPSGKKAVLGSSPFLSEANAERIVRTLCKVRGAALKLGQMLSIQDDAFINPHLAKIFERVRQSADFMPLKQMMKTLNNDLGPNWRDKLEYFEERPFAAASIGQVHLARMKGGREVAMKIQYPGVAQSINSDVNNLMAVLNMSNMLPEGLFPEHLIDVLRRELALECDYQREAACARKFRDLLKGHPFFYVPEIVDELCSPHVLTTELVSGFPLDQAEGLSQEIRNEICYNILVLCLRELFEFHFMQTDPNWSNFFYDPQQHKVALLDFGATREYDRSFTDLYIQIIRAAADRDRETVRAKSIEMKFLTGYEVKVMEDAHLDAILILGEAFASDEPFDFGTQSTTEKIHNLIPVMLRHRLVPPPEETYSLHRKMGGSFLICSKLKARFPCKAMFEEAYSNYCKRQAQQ
FES (human), sequence (P07332 whole entry, looked up): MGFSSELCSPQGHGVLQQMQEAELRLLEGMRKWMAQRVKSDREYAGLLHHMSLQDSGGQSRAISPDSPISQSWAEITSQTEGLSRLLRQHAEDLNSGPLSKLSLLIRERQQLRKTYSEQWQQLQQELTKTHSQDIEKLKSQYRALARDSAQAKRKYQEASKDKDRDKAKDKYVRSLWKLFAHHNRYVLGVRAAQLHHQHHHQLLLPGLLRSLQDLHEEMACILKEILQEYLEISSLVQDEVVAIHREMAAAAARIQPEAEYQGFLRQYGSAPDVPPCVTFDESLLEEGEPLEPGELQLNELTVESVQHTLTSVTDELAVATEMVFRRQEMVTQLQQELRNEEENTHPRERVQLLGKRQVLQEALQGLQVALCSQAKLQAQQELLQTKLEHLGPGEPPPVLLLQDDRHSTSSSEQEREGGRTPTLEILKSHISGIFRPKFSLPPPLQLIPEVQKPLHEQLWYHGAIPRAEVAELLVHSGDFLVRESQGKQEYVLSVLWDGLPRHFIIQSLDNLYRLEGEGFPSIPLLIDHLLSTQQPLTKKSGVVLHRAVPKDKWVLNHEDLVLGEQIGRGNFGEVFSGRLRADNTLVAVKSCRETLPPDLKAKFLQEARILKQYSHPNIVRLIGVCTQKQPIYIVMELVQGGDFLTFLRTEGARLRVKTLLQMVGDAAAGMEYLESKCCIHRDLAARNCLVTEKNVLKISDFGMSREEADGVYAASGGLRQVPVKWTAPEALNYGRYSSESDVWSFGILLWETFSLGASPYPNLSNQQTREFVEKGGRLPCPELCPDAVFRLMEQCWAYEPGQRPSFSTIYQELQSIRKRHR

SMILES | kinase still bound, per cent of control [1] | kinase still bound, per cent of control [2] | kinase still bound, per cent of control [3] | kinase still bound, per cent of control [4] | kinase still bound, per cent of control [5] | kinase still bound, per cent of control [6] | kinase still bound, per cent of control [7] | kinase still bound, per cent of control [8] | kinase still bound, per cent of control [10] | kinase still bound, per cent of control [12] | kinase still bound, per cent of control [14] | kinase still bound, per cent of control [15] | kinase still bound, per cent of control [16] | kinase still bound, per cent of control [17] | kinase still bound, per cent of control [18] | kinase still bound, per cent of control [21] | kinase still bound, per cent of control [24] | kinase still bound, per cent of control [26] | kinase still bound, per cent of control [29] | kinase still bound, per cent of control [33] | also measured
CCOc1cc(N2CCC(O)CC2)ccc1Nc1ncc2c(n1)N(C)c1ccccc1C(=O)N2C | 100% | 100% | 100% | 100% | 100% | 100% | 100% | 100% | 100% | 100% | 100% | 100% | 100% | 100% | 0% | 100% | 100% | 100% | 100% | 100% | kinase still bound, per cent of control [9]: 100%; kinase still bound, per cent of control [11]: 100%; kinase still bound, per cent of control [13]: 100%; kinase still bound, per cent of control [19]: 100%; kinase still bound, per cent of control [20]: 100%; kinase still bound, per cent of control [22]: 100%; kinase still bound, per cent of control [23]: 100%; kinase still bound, per cent of control [25]: 100%; kinase still bound, per cent of control [27]: 100%; kinase still bound, per cent of control [28]: 100%; kinase still bound, per cent of control [30]: 15%; kinase still bound, per cent of control [31]: 100%; kinase still bound, per cent of control [32]: 100%; kinase still bound, per cent of control [34]: 100%; kinase still bound, per cent of control [35]: 100%; kinase still bound, per cent of control [36]: 17%; kinase still bound, per cent of control [37]: 19%; kinase still bound, per cent of control [38]: 100%; kinase still bound, per cent of control [39]: 100%
CC(=O)c1c(C)c2cnc(Nc3ccc(N4CCNCC4)cn3)nc2n(C2CCCC2)c1=O | 80% | 63% | 16% | 55% | 0.9% | 66% | 80% | 89% | 38% | 0.65% | 76% | 20% | 87% | 57% | 0.65% | 26% | 35% | 69% | 30% | 59% | kinase still bound, per cent of control [40]: 5%; kinase still bound, per cent of control [11]: 67%; kinase still bound, per cent of control [19]: 40%; kinase still bound, per cent of control [22]: 35%; kinase still bound, per cent of control [23]: 61%; kinase still bound, per cent of control [34]: 57%; kinase still bound, per cent of control [35]: 11%; kinase still bound, per cent of control [36]: 92%; kinase still bound, per cent of control [41]: 91%; kinase still bound, per cent of control [37]: 26%; kinase still bound, per cent of control [38]: 75%; kinase still bound, per cent of control [39]: 83%
CCc1nc(-c2cccc(C)c2)c(-c2ccnc(NC(=O)c3ccccc3)c2)s1 | 9.6% | 0.2% | 80% | 78% | 69% | 69% | 97% | 100% | 100% | 100% | 70% | 80% | 90% | 85% | 98% | 100% | 90% | 100% | 97% | 97% | kinase still bound, per cent of control [40]: 100%; kinase still bound, per cent of control [9]: 60%; kinase still bound, per cent of control [13]: 90%; kinase still bound, per cent of control [20]: 88%; kinase still bound, per cent of control [22]: 100%; kinase still bound, per cent of control [23]: 90%; kinase still bound, per cent of control [25]: 100%; kinase still bound, per cent of control [27]: 87%; kinase still bound, per cent of control [28]: 30%; kinase still bound, per cent of control [30]: 69%; kinase still bound, per cent of control [31]: 100%; kinase still bound, per cent of control [32]: 81%; kinase still bound, per cent of control [34]: 100%; kinase still bound, per cent of control [35]: 72%; kinase still bound, per cent of control [36]: 78%; kinase still bound, per cent of control [41]: 100%; kinase still bound, per cent of control [37]: 70%; kinase still bound, per cent of control [38]: 100%; kinase still bound, per cent of control [39]: 5.6%
CCN(CCO)CCCOc1ccc2c(Nc3cc(CC(=O)Nc4cccc(F)c4)[nH]n3)ncnc2c1 | 81% | 85% | 1.4% | 100% | 100% | 62% | 100% | 100% | 74% | 58% | 92% | 51% | 100% | 100% | 87% | 37% | 100% | 100% | 67% | 100% | kinase still bound, per cent of control [40]: 14%; kinase still bound, per cent of control [9]: 100%; kinase still bound, per cent of control [11]: 75%; kinase still bound, per cent of control [13]: 100%; kinase still bound, per cent of control [19]: 47%; kinase still bound, per cent of control [20]: 25%; kinase still bound, per cent of control [25]: 100%; kinase still bound, per cent of control [27]: 100%; kinase still bound, per cent of control [28]: 72%; kinase still bound, per cent of control [30]: 100%; kinase still bound, per cent of control [31]: 100%; kinase still bound, per cent of control [32]: 46%; kinase still bound, per cent of control [34]: 56%; kinase still bound, per cent of control [35]: 59%; kinase still bound, per cent of control [36]: 100%; kinase still bound, per cent of control [41]: 100%; kinase still bound, per cent of control [37]: 49%; kinase still bound, per cent of control [38]: 100%; kinase still bound, per cent of control [39]: 42%
